# Tests used:
# B. subtilis 168 [1] = assay: fitness (endpoint OD595 vs no drug) (fraction); higher = more growth
# Procedure, shortened: (§1)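 Fitness is computed from the optical density at which cultures reach stationary phase, divided by the robust mean of no-drug control wells. Any value above 1 is set to 1. Cultures started at OD595 0.01 in 384-well plates with TSB, LB Lennox or CY at 37 °C, and OD595 was read every 30 min for 14 h against a first-reading background.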
# S. pneumoniae D39V [2] = assay: as above
# Procedure, shortened: as §1
# B. subtilis 168 [3] = assay: Bliss interaction score (quartile over a dose matrix) (fitness difference); higher = more antagonism (negative = synergy)
# Procedure, shortened: (§2)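 Fitness here means normalised growth, inferred for single drugs from the combination data. Growth was OD595 at entry into stationary phase, divided by the plate's robust no-drug mean and capped at 1. The Bliss score is observed minus expected fitness, with the expectation being the product, and its quartiles span technical, biological and donor/recipient replicates.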
# S. aureus DSM 20231 = assay: as above
# Procedure, shortened: as §2
# S. aureus Newman = assay: as above
# Procedure, shortened: as §2
# S. pneumoniae D39V [4] = assay: as above
# Procedure, shortened: as §2
# 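Throughout, for Bliss interaction score (quartile over a dose matrix): first quartile when negative (synergy) and third quartile when positive (antagonism).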
# 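Throughout, for fitness (endpoint OD595 vs no drug): OD595 on entry to stationary phase over no-drug wells; at most 1.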
compound,measurement,setting,value
C[C@H]1COc2c(N3CCN(C)CC3)c(F)cc3c(=O)c(C(=O)O)cn1c23 [Levofloxacin] + CCC[C@@H]1C[C@@H](C(=O)N[C@@H]([C@H]2O[C@H](SC)[C@H](O)[C@@H](O)[C@H]2O)[C@@H](C)O)N(C)C1 [Lincomycin],fitness,"B. subtilis 168 [1]; first compound 0.001 µg/mL, partner 0.4 µg/mL, one replicate",0.789
same,fitness,"B. subtilis 168 [1]; first compound 0.001 µg/mL, partner 0.8 µg/mL, one replicate",0.889
same,fitness,"B. subtilis 168 [1]; first compound 0.001 µg/mL, partner 1.6 µg/mL, one replicate",0.849
same,fitness,"B. subtilis 168 [1]; first compound 0.002 µg/mL, partner 0.1 µg/mL, one replicate",≥ 1
same,fitness,"B. subtilis 168 [1]; first compound 0.002 µg/mL, partner 0.2 µg/mL, one replicate",0.968
same,fitness,"B. subtilis 168 [1]; first compound 0.002 µg/mL, partner 0.4 µg/mL",0.897
same,fitness,"B. subtilis 168 [1]; first compound 0.002 µg/mL, partner 0.8 µg/mL, one replicate",0.797
same,fitness,"B. subtilis 168 [1]; first compound 0.002 µg/mL, partner 1.6 µg/mL, one replicate",0.767
same,fitness,"B. subtilis 168 [1]; first compound 0.0039 µg/mL, partner 0.1 µg/mL, one replicate",≥ 1
same,fitness,"B. subtilis 168 [1]; first compound 0.0039 µg/mL, partner 0.2 µg/mL, one replicate",0.975
same,fitness,"B. subtilis 168 [1]; first compound 0.0039 µg/mL, partner 0.4 µg/mL",0.888
same,fitness,"B. subtilis 168 [1]; first compound 0.0039 µg/mL, partner 0.8 µg/mL, one replicate",0.743
same,fitness,"B. subtilis 168 [1]; first compound 0.0039 µg/mL, partner 1.6 µg/mL, one replicate",0.806
same,fitness,"B. subtilis 168 [1]; first compound 0.0078 µg/mL, partner 0.1 µg/mL, one replicate",0.997
same,fitness,"B. subtilis 168 [1]; first compound 0.0078 µg/mL, partner 0.2 µg/mL, one replicate",0.961
same,fitness,"B. subtilis 168 [1]; first compound 0.0078 µg/mL, partner 0.4 µg/mL, one replicate",0.945
same,fitness,"B. subtilis 168 [1]; first compound 0.0312 µg/mL, partner 0.1 µg/mL",0.0367
same,fitness,"B. subtilis 168 [1]; first compound 0.0312 µg/mL, partner 0.2 µg/mL",0.0349
same,fitness,"B. subtilis 168 [1]; first compound 0.0312 µg/mL, partner 0.4 µg/mL",0.0483
same,fitness,"B. subtilis 168 [1]; first compound 0.0625 µg/mL, partner 0.1 µg/mL",0.0423
same,fitness,"B. subtilis 168 [1]; first compound 0.0625 µg/mL, partner 0.2 µg/mL",0.0292
same,fitness,"B. subtilis 168 [1]; first compound 0.0625 µg/mL, partner 0.4 µg/mL",0.0493
same,fitness,"B. subtilis 168 [1]; first compound 0.125 µg/mL, partner 0.1 µg/mL",0.0441
same,fitness,"B. subtilis 168 [1]; first compound 0.125 µg/mL, partner 0.2 µg/mL",0.0449
same,fitness,"B. subtilis 168 [1]; first compound 0.125 µg/mL, partner 0.4 µg/mL",0.0489
same,fitness,"S. pneumoniae D39V [2]; first compound 0.1725 µg/mL, partner 0.2 µg/mL",0.768
same,fitness,"S. pneumoniae D39V [2]; first compound 0.1725 µg/mL, partner 0.4 µg/mL",0.7
same,fitness,"S. pneumoniae D39V [2]; first compound 0.1725 µg/mL, partner 0.8 µg/mL",0.266
same,fitness,"S. pneumoniae D39V [2]; first compound 0.2 µg/mL, partner 0.215 µg/mL",0.807
same,fitness,"S. pneumoniae D39V [2]; first compound 0.2 µg/mL, partner 0.43 µg/mL",0.77
same,fitness,"S. pneumoniae D39V [2]; first compound 0.2 µg/mL, partner 0.86 µg/mL",0.5
same,fitness,"S. pneumoniae D39V [2]; first compound 0.345 µg/mL, partner 0.2 µg/mL",0.726
same,fitness,"S. pneumoniae D39V [2]; first compound 0.345 µg/mL, partner 0.4 µg/mL",0.639
same,fitness,"S. pneumoniae D39V [2]; first compound 0.345 µg/mL, partner 0.8 µg/mL",0.201
same,fitness,"S. pneumoniae D39V [2]; first compound 0.4 µg/mL, partner 0.215 µg/mL",0.754
same,fitness,"S. pneumoniae D39V [2]; first compound 0.4 µg/mL, partner 0.43 µg/mL",0.68
same,fitness,"S. pneumoniae D39V [2]; first compound 0.4 µg/mL, partner 0.86 µg/mL",0.379
same,fitness,"S. pneumoniae D39V [2]; first compound 0.69 µg/mL, partner 0.2 µg/mL",0.542
same,fitness,"S. pneumoniae D39V [2]; first compound 0.69 µg/mL, partner 0.4 µg/mL",0.503
same,fitness,"S. pneumoniae D39V [2]; first compound 0.69 µg/mL, partner 0.8 µg/mL",0.18
same,fitness,"S. pneumoniae D39V [2]; first compound 0.8 µg/mL, partner 0.215 µg/mL",0.691
same,fitness,"S. pneumoniae D39V [2]; first compound 0.8 µg/mL, partner 0.43 µg/mL",0.596
same,fitness,"S. pneumoniae D39V [2]; first compound 0.8 µg/mL, partner 0.86 µg/mL",0.272
same,Bliss interaction score,B. subtilis 168 [3],0.0149
same,Bliss interaction score,S. aureus DSM 20231,0.169
same,Bliss interaction score,S. aureus Newman,0.0423
same,Bliss interaction score,S. pneumoniae D39V [4],0.104
C[C@H]1COc2c(N3CCN(C)CC3)c(F)cc3c(=O)c(C(=O)O)cn1c23 [Levofloxacin] + Cc1cc(NS(=O)(=O)c2ccc(N)cc2)no1 [Sulfamethoxazol],fitness,"B. subtilis 168 [1]; first compound 0.001 µg/mL, partner 1 µg/mL, one replicate",0.98
same,fitness,"B. subtilis 168 [1]; first compound 0.001 µg/mL, partner 2 µg/mL, one replicate",0.98
same,fitness,"B. subtilis 168 [1]; first compound 0.001 µg/mL, partner 4 µg/mL, one replicate",0.929
same,fitness,"B. subtilis 168 [1]; first compound 0.002 µg/mL, partner 0.5 µg/mL, one replicate",0.955
same,fitness,"B. subtilis 168 [1]; first compound 0.002 µg/mL, partner 1 µg/mL",0.867
same,fitness,"B. subtilis 168 [1]; first compound 0.002 µg/mL, partner 2 µg/mL",0.881
same,fitness,"B. subtilis 168 [1]; first compound 0.002 µg/mL, partner 4 µg/mL, one replicate",0.885
same,fitness,"B. subtilis 168 [1]; first compound 0.0039 µg/mL, partner 0.5 µg/mL, one replicate",0.939
same,fitness,"B. subtilis 168 [1]; first compound 0.0039 µg/mL, partner 1 µg/mL",0.831
same,fitness,"B. subtilis 168 [1]; first compound 0.0039 µg/mL, partner 2 µg/mL",0.841
same,fitness,"B. subtilis 168 [1]; first compound 0.0039 µg/mL, partner 4 µg/mL, one replicate",0.834
same,fitness,"B. subtilis 168 [1]; first compound 0.0078 µg/mL, partner 0.5 µg/mL, one replicate",0.862
same,fitness,"B. subtilis 168 [1]; first compound 0.0078 µg/mL, partner 1 µg/mL, one replicate",0.782
same,fitness,"B. subtilis 168 [1]; first compound 0.0078 µg/mL, partner 2 µg/mL, one replicate",0.788
same,fitness,"B. subtilis 168 [1]; first compound 0.0312 µg/mL, partner 1 µg/mL",0.0318
same,fitness,"B. subtilis 168 [1]; first compound 0.0312 µg/mL, partner 2 µg/mL",0.0375
same,fitness,"B. subtilis 168 [1]; first compound 0.0312 µg/mL, partner 4 µg/mL",0.0268
same,fitness,"B. subtilis 168 [1]; first compound 0.0625 µg/mL, partner 1 µg/mL",0.0358
same,fitness,"B. subtilis 168 [1]; first compound 0.0625 µg/mL, partner 2 µg/mL",0.0467
same,fitness,"B. subtilis 168 [1]; first compound 0.0625 µg/mL, partner 4 µg/mL",0.0289
same,fitness,"B. subtilis 168 [1]; first compound 0.125 µg/mL, partner 1 µg/mL",0.0382
same,fitness,"B. subtilis 168 [1]; first compound 0.125 µg/mL, partner 2 µg/mL",0.0353
same,fitness,"B. subtilis 168 [1]; first compound 0.125 µg/mL, partner 4 µg/mL",0.0242
same,fitness,"S. pneumoniae D39V [2]; first compound 0.1725 µg/mL, partner 1 µg/mL",0.935
same,fitness,"S. pneumoniae D39V [2]; first compound 0.1725 µg/mL, partner 2 µg/mL",0.972
same,fitness,"S. pneumoniae D39V [2]; first compound 0.1725 µg/mL, partner 4 µg/mL",0.967
same,fitness,"S. pneumoniae D39V [2]; first compound 0.2 µg/mL, partner 1 µg/mL, one replicate",0.955
same,fitness,"S. pneumoniae D39V [2]; first compound 0.2 µg/mL, partner 2 µg/mL, one replicate",0.902
same,fitness,"S. pneumoniae D39V [2]; first compound 0.2 µg/mL, partner 4 µg/mL, one replicate",0.841
same,fitness,"S. pneumoniae D39V [2]; first compound 0.345 µg/mL, partner 1 µg/mL",0.824
same,fitness,"S. pneumoniae D39V [2]; first compound 0.345 µg/mL, partner 2 µg/mL",0.827
same,fitness,"S. pneumoniae D39V [2]; first compound 0.345 µg/mL, partner 4 µg/mL",0.833
same,fitness,"S. pneumoniae D39V [2]; first compound 0.4 µg/mL, partner 1 µg/mL, one replicate",0.854
same,fitness,"S. pneumoniae D39V [2]; first compound 0.4 µg/mL, partner 2 µg/mL, one replicate",0.87
same,fitness,"S. pneumoniae D39V [2]; first compound 0.4 µg/mL, partner 4 µg/mL, one replicate",0.771
same,fitness,"S. pneumoniae D39V [2]; first compound 0.69 µg/mL, partner 1 µg/mL",0.455
same,fitness,"S. pneumoniae D39V [2]; first compound 0.69 µg/mL, partner 2 µg/mL",0.461
same,fitness,"S. pneumoniae D39V [2]; first compound 0.69 µg/mL, partner 4 µg/mL",0.498
same,fitness,"S. pneumoniae D39V [2]; first compound 0.8 µg/mL, partner 1 µg/mL, one replicate",0.373
same,fitness,"S. pneumoniae D39V [2]; first compound 0.8 µg/mL, partner 2 µg/mL, one replicate",0.495
same,fitness,"S. pneumoniae D39V [2]; first compound 0.8 µg/mL, partner 4 µg/mL, one replicate",0.487
same,Bliss interaction score,B. subtilis 168 [3],-0.0263
same,Bliss interaction score,S. aureus DSM 20231,-0.125
same,Bliss interaction score,S. aureus Newman,0.0779
same,Bliss interaction score,S. pneumoniae D39V [4],-0.0634

# Source: the supplement of paper PMC10627819
